Reference: patent publication US20090030024A1, “THIAZOLES AS FUNGICIDES” (priority 2005, published 2009)
Where two headings read alike, the source gives them in different places.

Assays:
[1] = logP determination by retention times (calibration with alkan-2-ones)
Phytophthora infestans = test: whole plant or invertebrate; assay type: in vivo; conditions: in Solanum lycopersicum, 168 h, read-out: efficacy
Leptosphaeria nodorum = Leptosphaeria nodorum test (wheat)/protective; assay type: in vivo; conditions: Parastagonospora nodorum, 240 h, protective spray, active compound concentration 1000 ppm, evaluation 10 days after inoculation, read-out: efficacy
Procedure: Leptosphaeria Nodorum Test (Wheat)/Protective [table] […] After the spray coating has dried on, the plants are sprayed with a spore suspension of Leptosphaeria nodorum. The plants remain in an incubation cabin at 20° C. and 100% relative atmospheric humidity for 48 hours. The plants are placed in a greenhouse at a temperature of about 20° C. and a relative atmospheric humidity of 80%.

Fusarium graminearum = test: whole plant or invertebrate; assay type: in vivo; conditions: in Hordeum vulgare, 96 h, read-out: efficacy
[2] = logP, * HPLC reversed-phase C18, 40° C., mobile phase 0.1% aqueous formic acid and acetonitrile, linear gradient 10% to 95% acetonitrile

SMILES | chromatographic logP [1] | pest or weed control at 500 ppm (Phytophthora infestans) | pest or weed control at 1000 ppm (Leptosphaeria nodorum) | pest or weed control at 1000 ppm (Fusarium graminearum) | chromatographic logP [1, 2]
CCc1nc(C)c(-c2ccnc(Nc3ccc(NC(=O)OCCOC)cc3)n2)s1 [Example 73, 2-methoxyethyl-(4-{[4-(2-ethyl-4-methyl-1,3-thiazol-5-yl)pyrimidin-2-yl]amino}phenyl)carbamate] | 2.36 | ≥ 70% | ≥ 70% | – | –
Cc1nc(C(C)C)sc1-c1ccnc(Nc2cccc(O)c2)n1 [Example 151, 3-{[4-(2-isopropyl-4-methyl-1,3-thiazol-5-yl)pyrimidin-2-yl]amino}phenol] | 2.42 | – | ≥ 70% | ≥ 70% | –
COc1cc(Nc2nccc(-c3sc(C)nc3C)n2)cc(OC)c1OC [Example 182, 4-(2,4-dimethyl-1,3-thiazol-5-yl)-N-(3,4,5-trimethoxyphenyl)pyrimidine-2-amine] | 2.1 | ≥ 70% | ≥ 70% | ≥ 70% | –
CC(=O)c1cccc(Nc2nccc(-c3sc(C4CC4)nc3C)n2)c1 [Example 7, 1-(3-{[4-(2-cyclopropyl-4-methyl-1,3-thiazol-5-yl)pyrimidin-2-yl]amino}phenyl)ethanone] | 2.88 | – | ≥ 70% | – | –
COc1cc(Nc2nccc(-c3sc(C(C)C)nc3C)n2)cc(OC)c1OC [Example 244, 4-(2-isopropyl-4-methyl-1,3-thiazol-5-yl)-N-(3,4,5-trimethoxyphenyl)pyrimidine-2-amine] | 2.99 | – | ≥ 70% | ≥ 70% | –
Cc1nc(C)c(-c2ccnc(Nc3ccc(N(C)C)c(Cl)c3)n2)s1 [Example 62, 2-chloro-N4-[4-(2,4-dimethyl-1,3-thiazol-5-yl)pyrimidin-2-yl]-N1,N1-dimethylbenzene-1,4-diamine] | 2.06 | – | ≥ 70% | – | –
CCc1nc(C)c(-c2ccnc(Nc3ccccc3)n2)s1 [Example 243, 4-(2-ethyl-4-methyl-1,3-thiazol-5-yl)-N-phenylpyrimidine-2-amine] | 3.07 | ≥ 70% | – | ≥ 70% | –
COc1ccc(Nc2nccc(-c3sc(C(C)C)nc3C)n2)cn1 [Example 247, 4-(2-isopropyl-4-methyl-1,3-thiazol-5-yl)-N-(6-methoxypyridin-3-yl)pyrimidine-2-amine] | 2.76 | ≥ 70% | ≥ 70% | ≥ 70% | –
CCc1nc(C)c(-c2ccnc(Nc3ccc(OC)nc3)n2)s1 [Example 240, 4-(2-ethyl-4-methyl-1,3-thiazol-5-yl)-N-(6-methoxypyridin-3-yl)pyrimidine-2-amine] | 2.33 | – | ≥ 70% | ≥ 70% | –
Cc1nc(C)c(-c2ccnc(Nc3ccc(F)cc3F)n2)s1 [Example 759, N-(2,4-difluorophenyl)-4-(2,4-dimethyl-1,3-thiazol-5-yl)pyrimidine-2-amine] | – | – | ≥ 70% | – | 2.8
CC(=O)Nc1ccc(Nc2nccc(-c3sc(C(C)C)nc3C)n2)cc1 [Example 461, N-(4-{[4-(2-isopropyl-4-methyl-1,3-thiazol-5-yl)pyrimidin-2-yl]amino}phenyl)acetamide] | – | – | ≥ 70% | ≥ 70% | 2.15
CCc1nc(C)c(-c2ccnc(Nc3cc(OC)c(OC)c(OC)c3)n2)s1 [Example 235, 4-(2-ethyl-4-methyl-1,3-thiazol-5-yl)-N-(3,4,5-trimethoxyphenyl)pyrimidine-2-amine] | 2.61 | ≥ 70% | – | ≥ 70% | –
Cc1nc(C(C)C)sc1-c1ccnc(Nc2ccccc2)n1 [Example 251, 4-(2-isopropyl-4-methyl-1,3-thiazol-5-yl)-N-phenylpyrimidine-2-amine] | 3.55 | ≥ 70% | ≥ 70% | ≥ 70% | –
Cc1nc(C)c(-c2ccnc(Nc3ccccc3)n2)s1 [Example 190, 4-(2,4-dimethyl-1,3-thiazol-5-yl)-N-phenylpyrimidine-2-amine] | 2.4 | – | ≥ 70% | ≥ 70% | –
